Data as given in patent publication US20050027106A1, “Cancerous disease modifying antibodies” (priority 2003, published 2005).

Experiments:
[1] = system: HT-29 colon cancer cell line; assay: Live/Dead cytotoxicity assay, hybridoma supernatant; details: 5 days
Description: (§1) In conjunction with testing for antibody binding, the cytotoxic effects of the hybridoma supernatants were tested in the same colon cancer and normal cell lines: HT-29, SW1116 (and Lovo for AR26A439.3) and CCD-27sk. The Live/Dead cytotoxicity assay was obtained from Molecular Probes ([…].). The assays were performed according to the manufacturer's instructions with the changes outlined below. Cells were plated before the assay at the predetermined appropriate density. After 2 days, 100 μl of supernatant from the hybridoma microtitre plates were transferred to the cell plates and incubated in a 5 percent CO2 incubator for 5 days. […] An anti-EGFR antibody (C225) was also used in the assay for comparison. After 5 days of treatment, the plate was then emptied by inverting and blotting dry. Room temperature DPBS (Dulbecco's phosphate buffered saline) containing MgCl2 and CaCl2 was dispensed into each well from a multichannel squeeze bottle, tapped 3 times, emptied by inversion and then blotted dry. 50 μl of the fluorescent Live/Dead dye diluted in DPBS containing MgCl2 and CaCl2 was added to each well and incubated at 37° C. in a 5% CO2 incubator for 30 minutes. The plates were read in a Perkin-Elmer HTS7000 fluorescence plate reader and the data was analyzed in Microsoft Excel.

[2] = system: CCD-27sk normal cell line; assay: as above; details: 5 days
Description: as §1

[3] = as above; details: human
Description: as §1

| Compound | Cytotoxicity (%) HT-29 Average [1] [%] | Cytotoxicity (%) CCD-27sk Average [2] [%] | cytotoxicity at 5 days [3] [%] | cytotoxicity at 5 days ([3]; Cytotoxicity (%) CCD-27sk Average) [%] | cytotoxicity at 5 days ([3]; Cytotoxicity (%) HT-29 Average) [%] |
| --- | --- | --- | --- | --- | --- |
| C[C@@H]1C[C@@H]([C@H](O)CC2CC(=O)NC(=O)C2)C(=O)[C@@H](C)C1 [Cycloheximide] | 48 | 40 | 56 | 21 | 46 |
| [N-]=[N+]=[N-] [NaN3, sodium azide] | 57 |  | 4 |  | 59 |
